Laboratory results as given in patent US10954300B2, “Use of pentoxifylline with immune checkpoint-blockade therapies for the treatment of melanoma” (THE TRUSTEES OF COLUMBIA UNIVERSITY IN THE CITY OF NEW YORK, priority 2015, dated 2021).
“Also recorded” adds a separate entry of the source.

Legend:
Treg cells = experiment: RNA-Seq of PTXF-treated Treg cells; assay type: cell-based, mice; settings: 500 μg/mL PTXF
Procedure: Total cells suspensions were then activated with 5 μg/mL plate-coated anti-mCD3, 1 μg/ml soluble anti-mCD28 (BioLegend) and 10 ng/mL mIL-2, overnight at 37 C. Treg cells were then washed for further use. Total RNA was extracted using a Qiagen Rneasy Mini Kit with DNase treatment. For qPCR, RNA was reverse transcribed by Superscript III (Invitrogen). cDNAs were used for PCR with SYBR Green reagents (Quanta Biosciences, Gaithersburg, Md.) on a C1000 Touch thermal cycler (Bio Rad, Hercules, Calif.). The data was normalized to GAPDH expression. Primers sequences can be sent under request. For RNA-sequencing, libraries were prepared using an Illumina TruSeq Library Kit and sequenced by an Illumina 2500 instrument. Upon sequencing, raw FASTQ files were aligned on the mm10 genome using STAR aligner with default parameters (Dobin et al., 2013). Aligned fragments were then counted and annotated using Rsamtools v3.2 and the TxDb.Mmusculus.UCSC.mm10.knownGene' version 3.1.2 transcript database respectively. Normalized FPKM (fragments per kilobase per million mapped reads) were obtained using the robust FPKM estimate function of DeSeq2 v1.10.1 after removing the batch effect using the ComBat function of the sva package v3.18.0. Differentially expressed genes were obtained using the DESeqResults function of the same package. All p-values were adjusted for multiple comparison using the Benjamini & Hochberg FDR algorithm. For gene set enrichment analysis, the GSEA software was used, and Molecular Signature Database (MSigDB) including the ImmuneSigDB (C7 collection)(Godec et al., 2016; Subramanian et al., 2005).

B16F1 cells = experiment: B16F1 tumor growth in immunodeficient mice; assay type: in vivo, RAG1−/− mice; settings: PTXF vs PBS
Procedure: 5×10^4 B16F1 or 5×10^5 CT-26 or BRAF^[…]^-/- cells diluted in sterile PBS1X were injected subcutaneously into the shaved flank of each mouse. For metastasis experiments, 2.5×10^4 B16F10 cells were injected intravenously in the tail vein. […] Anti-PD-1 (RMP1-14), anti-PD-L1 (10F.9G2) and anti-CD8 (YTS.169-4) mAbs were obtained from BioXCell. Rat IgG isotype control was from R&D Systems.

p65 [1] = experiment: Western blot on PTXF-treated Treg cells; assay type: cell-based, mice; settings: Treg cells stimulated with anti-CD3/CD28 and mIL-2, 500 μg/mL PTXF
Procedure: Total cells suspensions were then activated with 5 μg/mL plate-coated anti-mCD3, 1 μg/ml soluble anti-mCD28 (BioLegend) and 10 ng/mL mIL-2, overnight at 37 C. Treg cells were then washed for further use. Total lysates were extracted using RIPA buffer and protease inhibitors with SDS. 20 μg (micrograms) protein extracts were ran in polyacrylamide gels and transferred onto PVDF membranes. Membranes were incubated with anti-p65, c-Rel (Santa-Cruz) and GAPDH (Fitzgerald) Abs, followed HRP-coupled secondary Abs.

p65 [2] = settings: cited from earlier work
c-Rel = target: T1, c-Rel (Homo sapiens, UniProt Q04864); settings: cited from earlier work
T1 construct: host or cells: T cells
T1 sequence (Q04864 1-619): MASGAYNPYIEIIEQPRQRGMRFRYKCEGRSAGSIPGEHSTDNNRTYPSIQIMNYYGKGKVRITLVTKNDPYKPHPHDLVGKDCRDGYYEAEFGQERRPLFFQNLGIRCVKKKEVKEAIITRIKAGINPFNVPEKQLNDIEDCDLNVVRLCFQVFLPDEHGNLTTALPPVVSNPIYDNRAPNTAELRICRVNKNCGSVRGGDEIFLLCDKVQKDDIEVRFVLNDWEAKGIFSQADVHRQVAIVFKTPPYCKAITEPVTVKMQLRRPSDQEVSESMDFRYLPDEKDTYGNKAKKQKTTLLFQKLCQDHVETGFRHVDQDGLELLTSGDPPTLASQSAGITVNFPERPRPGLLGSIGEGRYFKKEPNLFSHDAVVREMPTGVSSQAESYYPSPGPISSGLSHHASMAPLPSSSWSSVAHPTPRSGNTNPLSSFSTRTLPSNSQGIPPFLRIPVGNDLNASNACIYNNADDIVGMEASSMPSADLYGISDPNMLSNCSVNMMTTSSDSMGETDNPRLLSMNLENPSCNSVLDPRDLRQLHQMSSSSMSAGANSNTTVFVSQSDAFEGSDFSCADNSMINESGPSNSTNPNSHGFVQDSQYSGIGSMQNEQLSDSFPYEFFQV

B16F1 melanoma cells = experiment: B16F1 melanoma growth, early treatment with PTXF or IT-603; assay type: in vivo, C57Bl/6 WT mice
Procedure: B16F1, B16F10 and CT-26 cells were obtained from the ATCC and grown in DMEM+10% FBS medium. BRAF^CAPten^−/− cells were originally derived from an in vivo melanoma induced by topical tamoxifen treatment of Ubc^cre-ERT2 BRAF^CA Pten^F/F, as described. All cell lines were periodically tested for murine pathogens. Cells were grown in DMEM supplemented with 10% FBS. When confluence reached 60-70%, cells were detached and washed in PBS1X. Fifty thousand cells diluted in 50 μL PBS1X were injected subcutaneously in the shaved abdomen of each mouse. Tumor growth was measured daily using a caliper.
Pentoxifylline (Sigma) powder was dissolved in PBS1X and sterile filtered prior to each injection. […] For the “curative” regimen, mice were treated daily from day 5-6 (when the tumor was visible and palpable) to day 11, following the same methods. IT-603 was reconstituted in DMSO and stored at −80° C. It then was diluted in PBS1X and sterile-filtered prior to each injection. […]
5×10^4 B16F1 or 5×10^5 CT-26 or BRAF^CAPten^−/− cells diluted in sterile PBS1X were injected subcutaneously into the shaved flank of each mouse. For metastasis experiments, 2.5×10^4 B16F10 cells were injected intravenously in the tail vein. […] Anti-PD-1 (RMP1-14), anti-PD-L1 (10F.9G2) and anti-CD8 (YTS.169-4) mAbs were obtained from BioXCell. Rat IgG isotype control was from R&D Systems. […] In FIG. 11A-11G, Balb/c mice harboring CT-26 tumors received a suboptimal dose of 100 μg of anti-PD-1.
C57BI/6 WT mice were injected subcutaneously with 5×10^4 B16F1 melanoma cells, and then injected with either PBS (control), pentoxifylline, or IT-603 (red arrows). Tumor growth was monitored daily.

size or composition of lymphoid tissues (B16F1 melanoma cells; B16F1-bearing mice, 50 mg/kg PTXF): No observable differences
Structure (SMILES): CC(=O)CCCCn1c(=O)c2c(ncn2C)n(C)c1=O [PTXF, 1-(5-oxohexyl)-3,7-dimethylxanthine]
Foxp3 mRNA (Treg cells): unaffected | expression of Cbl-b (Treg cells): up-regulated | expression of Gzmb and Tgfb1 (Treg cells): decreased expression | expression of c-Rel mRNA (Treg cells): unaffected | expression of genome organizer Sat1 (Treg cells): up-regulated | tumor growth in immunodeficient background (B16F1 cells): no effect on tumor growth | levels of p65 (p65 [1]): unchanged | levels of p65 in T cells in vitro (p65 [2]): unchanged | levels of c-Rel activation in T cells in vitro (c-Rel): reduces the levels of c-Rel activation | adverse events (B16F1 melanoma cells; B16F1-bearing mice, 50 mg/kg PTXF, 50 mg/kg): no apparent adverse events; also recorded: No adverse effects of treatment were observed | pace of tumor growth (B16F1 melanoma cells; B16F1, daily injections of 50 mg/kg PTXF vs PBS): significant reduction in the pace of tumor growth | tumor growth (tumor volume, monitored daily) (B16F1 melanoma cells; B16F1 s.c., PTXF 50 mg/kg or IT-603 10 mg/kg on days 0, 2, 3, 4, 6 and 8, vs control vehicle): significantly reduced growth of the tumors
